The record followed here is patent US12492230B2, “Antigenic peptides deriving from secretogranin V and uses thereof for the diagnosis and treatment of type 1 diabetes” (INSERM (Institut National de la Santé et de la Recherche …, priority 2018, dated 2025).

Common to all, as to format: cell-based, human
For test [1], the system named is circulating CD8+ T cells. Nature of the test: Ex vivo HLA-A3 multimer (MMr) staining of PBMCs. To be noted: for positive hits for the HLA-A3 restriction: HLA-A3+ T1D and healthy donors. The method, then: HLA-A3 MMrs were produced and used as described (Gonzalez-Duque, Cell Metab 2018). Each peptide-HLA-A3 complex was used at a final concentration of 8-27 nM and conjugated with fluorochrome-labeled streptavidin at a 1:4 ratio. The concentration of each fluorescent MMr was corrected for the variable staining index of each streptavidin, in order to obtain a distinct double-MMr+ population for each fluorochrome pair. Compensations were set using fluorescence-minus-one samples (i.e. omitting one streptavidin at a time).
PBMCs were thawed at 37° C. and immediately diluted in pre-warmed AIM-V medium. Following centrifugation and one additional wash in AIM-V, PBMCs were counted and rested in the presence of 50 nM dasatinib for 30 min at 37° C. to prevent internalization of T-cell receptors before magnetic depletion of CD8^− cells (StemCell Technologies). Staining was performed for 20 min at 20° C. in […] PBS-dasatinib for 10^7 cells with combinatorial double-coded MMr panels, followed, without washing, by CD3-APC-H7 (RRID AB_1645475), CD8-PE-Cy7 (AB_396852), CD45RA-FITC (AB_395879), CCR7-BV421 (AB_2728119) monoclonal antibodies and Live/Dead Aqua (ThermoFisher) staining at 4° C. for 20 min. After one wash, cells were acquired using a FACSAria III cytometer. […] Flow cytometry data were analyzed with FlowJo v10 and Graphpad Prism 7.0 software. Cells were sequentially gated on small lymphocytes, singlets, live cells (Live/Dead Aqua^−), CD3^+CD8^+ T cells and total PE^+, PE-CF594^+, APC^+, BV650^+, BV711^+ and BV786^+MMr^+ T cells. Using Boolean operators, these latter gates allowed to selectively visualize each double-MMr^+ population by including only those events positive for the corresponding fluorochrome pair. For example, SCG3166-174 MMr^+ cells (PE^+PE-CF594^+) were visualized by gating on events that were PE^+PE-CF594^+APC^−BV650^−BV711^−BV786^−. Events negative for all MMr fluorochromes (PE^−PE-CF594^−APC^−BV650^−BV711^−BV786^−) were represented in the same PE/PE-CF-594 dot plot to set the double-MMr^+ gate. CD45RA and CCR7 staining was subsequently visualized by gating on these MMr^+ cells.

Test [2] concerns pancreas-infiltrating cells of HLA-A2+ T1D patients. Nature of the test: In-situ HLA-A2 MMr staining on pancreas sections. Particulars: 2 HLA-A2+ T1D cases, nPOD tissue sections. The method, then:
In-situ staining was performed as described (Culina et al., 2018). Unfixed, frozen sections were dried for 2 h, loaded with 1 μg of MMrs overnight at 4° C., washed gently with phosphate-buffered saline and fixed in 2% paraformaldehyde for 10 min. After a further wash, endogenous peroxidase activity was blocked with 0.3% H2O2. Sections were then incubated serially with rabbit anti-phycoerythrin, horseradish peroxidase-conjugated swine anti-rabbit and 3,3′-diaminobenzidine tetrahydrochloride substrate (ThermoFisher). After a final wash, sections were counterstained with hematoxylin, dehydrated via sequential passages in 95-100% ethanol and xylene, mounted and analyzed using a Nikon Eclipse Ni microscope with NIS-Elements Analysis D software v4.40.

The test system of test [3] is circulating CD8+ T cells. Description: Ex vivo combinatorial HLA-A2 multimer (MMr) staining of PBMCs. To be noted: for median frequency in peripheral blood: T1D patients, fraction of CD8+ T cells; for frequency of circulating MMr+ CD8+ T cells (in words): HLA-A2+ recent-onset T1D and healthy subjects. The method, then: All peptides were synthesized at >90% purity (Synpeptides). HLA-A2 MMrs were produced as described (Leisner et al., 2008) and staining performed in the presence of 50 nM dasatinib (Lissina et al., 2009), as described (Culina et al., 2018). Briefly, cryopreserved PBMCs were magnetically depleted of CD8^− cells (StemCell Technologies), stained with the combinatorial MMr panels (Hadrup et al., 2009) and acquired using a FACSAria III cytometer.

Where [4] appears, read: HLA-A2+ healthy donors, screening.

Where no end group is shown, it is not given here.

For the substance “KIF1A860-868: HLA-A3-restricted islet peptide from KIF1A (LLYPVPLVH)”, the “positive hits for the HLA-A3 restriction” value with circulating CD8+ T cells [1] was “positive hits”. In the case of “IAPP15-17/IAPP5-10: peptide splice product from fusion of IAPP15-17 and IAPP5-10, HLA-A2-restricted (VALKLQVFL)”, the “in-situ MMr staining of pancreas sections” value (shortened to “in-situ MMr staining”) in test [2] is “MMr^+ cells could be detected”. In the test with circulating CD8+ T cells [3] (setting [4]), the “recognition by circulating CD8+ T cells, donors” value is recorded as 1 of 6. Besides, the “median frequency in peripheral blood” value in the test with circulating CD8+ T cells [3] is 1.6×10^−6. Consider “UCN31-9: HLA-A2-restricted HLA-eluted β-cell peptide from urocortin-3 leader sequence (MLMPVHFLL)”, for which the “cognate naïve CD8+ T-cell repertoire (frequency 1-50/10^6 CD8+ T cells, clustered MMr staining, in ≥50% of individuals)” value in the test with circulating CD8+ T cells [3] (setting [4]) was “validated”. The “frequency of circulating MMr+ CD8+ T cells (in words)” value in the test with circulating CD8+ T cells [3] was “particularly high and clustered”. Regarding “PNMA250-58: HLA-A3-restricted islet peptide candidate, not validated (RLLGKIFRK)”, in the test with circulating CD8+ T cells [1] (second validation round, PBMCs from T1D and healthy donors), the “validation as CD8+ T-cell epitopes” value is reported as “single exception”. In the case of “SCG3166-174: HLA-A3-restricted islet peptide from secretogranin III (AVFDKIVSK)”, the “positive hits for the HLA-A3 restriction” value with circulating CD8+ T cells [1] was “positive hits”. Still for that read-out and setting: with RLKPSLVGK the entry was “positive hits”; with “UCN346-56: HLA-A3-restricted islet peptide from urocortin-3 (GQWEDASLLSK)”, “positive hits”. “CHGA344-352: HLA-A2-restricted HLA-eluted β-cell peptide from chromogranin A, maps to the WE-14 neuropeptide (KMDQLAKEL)”: the “cognate naïve CD8+ T-cell repertoire (frequency 1-50/10^6 CD8+ T cells, clustered MMr staining, in ≥50% of individuals)” value in the test on circulating CD8+ T cells [3] (setting [4]) is on record as “validated”.

Regarding “ISL1276-284: HLA-A2-restricted HLA-eluted peptide from insulin gene enhancer protein ISL1 (GLQANPVEV)”, the “in-situ MMr staining” value in test [2] is listed as “MMr^+ cells could be detected”. Besides, in the test with circulating CD8+ T cells [3] (setting [4]), the “cognate naïve CD8+ T-cell repertoire (frequency 1-50/10^6 CD8+ T cells, clustered MMr staining, in ≥50% of individuals)” value was “validated”. Moreover, the “median frequency in peripheral blood” value with circulating CD8+ T cells [3] is listed as 7.2×10^−6. Take FLSGAVNRL: the “cognate naïve CD8+ T-cell repertoire (frequency 1-50/10^6 CD8+ T cells, clustered MMr staining, in ≥50% of individuals)” value in the test with circulating CD8+ T cells [3] (setting [4]) is “validated”. In addition, in the test with circulating CD8+ T cells [3], the “frequency of circulating MMr+ CD8+ T cells (in words)” value is “particularly high and clustered”. In the case of YLQGQRLDNV, the “cognate naïve CD8+ T-cell repertoire (frequency 1-50/10^6 CD8+ T cells, clustered MMr staining, in ≥50% of individuals)” value with circulating CD8+ T cells [3] (setting [4]) is recorded as “validated”. In the case of “ZnT8186-184: positive control islet peptide (VAANIVLTV; UniProt Q8IWU4 186-194, looked up, fragment) [reference compound]”, in test [2], the “in-situ MMr staining” value is recorded as “observed”. With “KIF1A1347-1355: HLA-A2-restricted HLA-eluted β-cell peptide from kinesin family member 1A (VLDTSVAYV)”, the “cognate naïve CD8+ T-cell repertoire (frequency 1-50/10^6 CD8+ T cells, clustered MMr staining, in ≥50% of individuals)” value in the test with circulating CD8+ T cells [3] (setting [4]) was “validated”.

For “KCNK16129-137: HLA-A2-restricted HLA-eluted β-cell peptide from KCNK16 (ALLGIPLNV)”, the “cognate naïve CD8+ T-cell repertoire (frequency 1-50/10^6 CD8+ T cells, clustered MMr staining, in ≥50% of individuals)” value with circulating CD8+ T cells [3] (setting [4]) is recorded as “validated”. On the same count and under the same terms, with “PCSK230-38: HLA-A2-restricted HLA-eluted β-cell peptide from proprotein convertase 2 (FTNHFLVEL)” the entry was “validated”. As to “PTPRN576-580/708-711: spliced peptide derived from the fusion of two non-contiguous IA-2 sequences, HLA-A3 (SVLLTRLAK)”, the “positive hits for the HLA-A3 restriction” value with circulating CD8+ T cells [1] was “identified”.
